According to PubChem BioAssay AID330 (DTP/NCI, 2004):
Values joined by “and” are separate entries in the source; they are usually repeats but may differ in a detail not shown here. Equal entries are not always repeated. Inconclusive results and toxic doses are left out. Rule for the calls: active = survival T/C of 150% or more; inactive = T/C below 125% in these data.

Test system: P388 leukemia ip, CD2F1 mice, survival T/C
Assay: NCI In Vivo Anticancer Drug Screen. Data for tumor model P388 Leukemia (intraperitoneal) in CD2F1 (CDF1) mice
Conditions: endpoint: median survival time, higher = longer survival
In short: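 Mice carrying the transplanted tumor received test compound or vehicle. Survival was recorded in each group, and the value is the treated-group measurement divided by that of the vehicle-treated control group.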

[1] = dose: 50.0 mg/kg/injection, schedule: Q01DX009 (ip), vehicle: Klucel (hydroxypropylcellulose) (HPC)
[2] = dose: 100.0 mg/kg/injection, schedule: Q01DX009 (ip), vehicle: Klucel (hydroxypropylcellulose) (HPC)
[3] = dose: 200.0 mg/kg/injection, schedule: Q01DX009 (ip), vehicle: Klucel (hydroxypropylcellulose) (HPC)
[4] = dose: 60.0 mg/kg/injection, schedule: Q01DX005 (ip), vehicle: saline with Tween-80
[5] = dose: 120.0 mg/kg/injection, schedule: Q01DX005 (ip), vehicle: saline with Tween-80
[6] = dose: 240.0 mg/kg/injection, schedule: Q01DX005 (ip), vehicle: saline with Tween-80
[7] = dose: 50.0 mg/kg/injection, schedule: Q01DX009 (ip), vehicle: saline with Tween-80

Measured: T/C

O=C1/C(=C/c2ccc(Br)cc2)CCc2ccccc21
inactive: [1] 105 % of control | [2] 111 % of control | [3] 105 % of control

C[N+]1(C[Si](C)(C)c2ccccc2)CCOCC1
inactive: dose: 12.5 mg/kg/injection, schedule: Q01DX005 (ip), vehicle: saline 105 % of control | dose: 25.0 mg/kg/injection, schedule: Q01DX005 (ip), vehicle: saline 103 % of control | dose: 50.0 mg/kg/injection, schedule: Q01DX005 (ip), vehicle: saline 102 % of control and 104 % of control

CC(=N)C(C#N)C(=S)S (centres undefined)
inactive: [1] 102 % of control | [2] 86 % of control | [3] 89 % of control

Cc1ncc(CN2CSC(CCO)C2C)c(N)n1 (centres undefined)
inactive: dose: 60.0 mg/kg/injection, schedule: Q01DX005 (ip), vehicle: Klucel (hydroxypropylcellulose) (HPC) 100 % of control | dose: 120.0 mg/kg/injection, schedule: Q01DX005 (ip), vehicle: Klucel (hydroxypropylcellulose) (HPC) 106 % of control | dose: 240.0 mg/kg/injection, schedule: Q01DX005 (ip), vehicle: Klucel (hydroxypropylcellulose) (HPC) 105 % of control

Cc1c(O)ccc2c1OCC(c1ccc(Cl)cc1)C2 (centres undefined)
inactive: [4] 104 % of control | [5] 91 % of control | [6] 92 % of control

CCCCN(CCCC)CC(O)c1cc2c(Cl)cc(Cl)cc2c2cc(C(F)(F)F)ccc12 (centres undefined)
inactive: [7] 97 % of control | dose: 100.0 mg/kg/injection, schedule: Q01DX009 (ip), vehicle: saline with Tween-80 100 % of control | dose: 200.0 mg/kg/injection, schedule: Q01DX009 (ip), vehicle: saline with Tween-80 100 % of control

CSc1nc2c(=O)[nH]cnc2s1
inactive: [4] 105 % of control | [5] 102 % of control | [6] 96 % of control

COc1cc2cc[n+](C)cc2cc1OC
inactive: dose: 6.25 mg/kg/injection, schedule: Q01DX009 (ip), vehicle: water 90 % of control | dose: 12.5 mg/kg/injection, schedule: Q01DX009 (ip), vehicle: water 102 % of control | dose: 22.0 mg/kg/injection, schedule: Q01DX009 (ip), vehicle: water 121 % of control | dose: 25.0 mg/kg/injection, schedule: Q01DX009 (ip), vehicle: water 107 % of control | dose: 33.0 mg/kg/injection, schedule: Q01DX009 (ip), vehicle: water 115 % of control | dose: 75.0 mg/kg/injection, schedule: Q01DX009 (ip), vehicle: water 121 % of control | dose: 100.0 mg/kg/injection, schedule: Q01DX009 (ip), vehicle: water 123 % of control

CN(N=O)C(=O)Nc1ccc(C(=O)O)cc1
active: dose: 25.0 mg/kg/injection, schedule: Q01DX009 (ip), vehicle: saline with Tween-80 181 % of control | dose: 25.0 mg/kg/injection, schedule: Q04DX003 (ip), vehicle: saline with Tween-80 155 % of control | [7] 181 % of control | dose: 50.0 mg/kg/injection, schedule: Q04DX003 (ip), vehicle: saline with Tween-80 180 % of control | dose: 66.0 mg/kg/injection, schedule: Q04DX003 (ip), vehicle: saline with Tween-80 159 % of control | dose: 100.0 mg/kg/injection, schedule: Q04DX003 (ip), vehicle: saline with Tween-80 172 % of control and 200 % of control

CC1CN=C(c2ccc(NC(=O)c3cccc(C(=O)Nc4ccc(C5=NCC(C)N5)cc4)c3)cc2)N1 (centres undefined)
inactive: dose: 12.0 mg/kg/injection, schedule: Q01DX010 (ip), vehicle: saline 118 % of control
active: dose: 18.0 mg/kg/injection, schedule: Q01DX010 (ip), vehicle: saline 154 % of control | dose: 27.0 mg/kg/injection, schedule: Q01DX010 (ip), vehicle: saline 159 % of control | dose: 40.0 mg/kg/injection, schedule: Q01DX010 (ip), vehicle: saline 172 % of control

COc1ccc(CCN2C(=O)C(=O)N(C)C2=O)cc1OC
inactive: [1] 90 % of control | [2] 96 % of control | [3] 102 % of control

C=Cc1cc[n+](CC(=O)c2ccc(-c3ccccc3)cc2)cc1
inactive: dose: 12.5 mg/kg/injection, schedule: Q01DX009 (ip), vehicle: Klucel (hydroxypropylcellulose) (HPC) 103 % of control | dose: 25.0 mg/kg/injection, schedule: Q01DX009 (ip), vehicle: Klucel (hydroxypropylcellulose) (HPC) 90 % of control | [1] 92 % of control
